Source: US7772245B2, “Inhibitors of histone deacetylase” (Miikana Therapeutics, Inc., priority 2005, dated 2010)

Experiments:
HDAC = assay: In vitro fluorescent histone deacetylase assay (Biomol HDAC fluorescent activity kit, HeLa cell nuclear extract); type: biochemical; conditions: 100 μM compound; HeLa cell nuclear extract as source of HDAC activity; 50 μM substrate, 10 min at room temperature
Outline: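 HeLa nuclear extract as HDAC source with fluorogenic substrate at 50 μM final, reacting 10 min at room temperature before stop. Compounds serially diluted in assay buffer, final DMSO ≤2%; fluorescence read at ex 355 nm / em 460 nm.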

HCT116 cells = assay: Whole cell cytotoxicity assay: Sulforhodamine B; type: cell-based; conditions: Homo sapiens, HCT-116; 100 μM compound; 48 hours incubation with drug; Sulforhodamine B staining; read-out: % Inhibition of HCT116 cell growth @ 100 μM

How did the “% Inhibition of HDAC @ 100 μM” value (HDAC) turn out when `CC(=O)n1c2c(c3cc(C)ccc31)CN(c1ncc(C(=O)NO)cn1)CC2` [Example 74, N-hydroxy-2-{5-acetyl-8-methyl-1,3,4,5-tetrahydro-2H-pyrido[4,3-b]indol-2-yl}pyrimidine-5-carboxamide] was run?
The value was 99.1%.

What about the inhibition at 100 µM (HCT116 cells) of the same molecule?
Its inhibition at 100 µM is 93.6%.

Which “% Inhibition of HDAC @ 100 μM” value (HDAC) does the source give for `Cc1ccc2c3c([nH]c2c1)CCN(c1ncc(C(=O)NO)cn1)C3` [Example 36, N-hydroxy-2-(7-methyl-1,3,4,5-tetrahydro-2H-pyrido[4,3-b]indol-2-yl)pyrimidine-5-carboxamide] here?
Its value is 99.8%.

And the inhibition at 100 µM (HCT116 cells)?
Its inhibition at 100 µM is 98.3%.

For `CC(=O)NCc1cccc(-c2ccc3[nH]c4c(c3c2)CN(c2ncc(C(=O)NO)cn2)CC4)c1` [Example 82, N-hydroxy-2-{8-[3-(N-acetamidomethyl)phenyl]-1,3,4,5-tetrahydro-2H-pyrido[4,3-b]indol-2-yl}pyrimidine-5-carboxamide], which “% Inhibition of HDAC @ 100 μM” value (HDAC) is on record?
Its value is 99.9%.

And the inhibition at 100 µM (HCT116 cells)?
The inhibition at 100 µM was 97%.

With `O=C(NO)c1cnc(N2CCc3[nH]c4cc(Br)ccc4c3C2)nc1` [Example 112, N-hydroxy-2-(7-bromo-1,3,4,5-tetrahydro-2H-pyrido[4,3-b]indol-2-yl)pyrimidine-5-carboxamide] as the molecule, how does the “% Inhibition of HDAC @ 100 μM” value (HDAC) read?
Its value is 99.9%.

And the inhibition at 100 µM (HCT116 cells)?
Its inhibition at 100 µM is 98.7%.

What does the source list for `O=C(NO)c1cnc(N2CCc3c(n(CCN4CCOCC4)c4ccccc34)C2)nc1` [Example 25, N-hydroxy-2-[9-(2-morpholin-4-ylethyl)-1,3,4,9-tetrahydro-2H-b-carbolin-2-yl]pyrimidine-5-carboxamide]?
% Inhibition of HDAC @ 100 μM (HDAC): 98%; inhibition at 100 µM (HCT116 cells): 94%

How did the “% Inhibition of HDAC @ 100 μM” value (HDAC) turn out when `O=C(NO)c1cnc(N2CCc3[nH]c4ccc(-c5cccc(F)c5)cc4c3C2)nc1` [Example 44, N-hydroxy-2-{8-[3-fluorophenyl]-1,3,4,5-tetrahydro-2H-pyrido[4,3-b]indol-2-yl}pyrimidine-5-carboxamide] was run?
The value was 99.9%.

What about the inhibition at 100 µM (HCT116 cells) of the same molecule?
The inhibition at 100 µM was 97.6%.

How did the “% Inhibition of HDAC @ 100 μM” value (HDAC) turn out when `O=C(NO)c1cnc(N2CCc3[nH]c4ccc(-c5ccc(CN6CCOCC6)o5)cc4c3C2)nc1` [Example 109, N-hydroxy-2-{8-[5-(morpholin-4-yl)methyl-2-furyl]-1,3,4,5-tetrahydro-2H-pyrido[4,3-b]indol-2-yl}pyrimidine-5-carboxamide] was run?
The value was 100%.

And the inhibition at 100 µM (HCT116 cells)?
Its inhibition at 100 µM is 91.7%.

With `O=C(NO)c1cnc(N2CCc3[nH]c4ccc(-c5cccc(CN6CCSCC6)c5)cc4c3C2)nc1` [Example 94, N-hydroxy-2-{8-[3-(thiomorpholin-4-ylmethyl)phenyl]-1,3,4,5-tetrahydro-2H-pyrido[4,3-b]indol-2-yl}pyrimidine-5-carboxamide] as the molecule, how does the “% Inhibition of HDAC @ 100 μM” value (HDAC) read?
Its value is 99.7%.

And the inhibition at 100 µM (HCT116 cells)?
The inhibition at 100 µM was 98.5%.

Which “% Inhibition of HDAC @ 100 μM” value (HDAC) does the source give for `O=C(NO)c1cnc(N2Cc3cccc4cccc(c34)C2)nc1` [Example 32, 2-(1H-benzo[de]isoquinolin-2(3H)-yl)-N-hydroxypyrimidine-5-carboxamide] here?
Its value is 96.6%.

And the inhibition at 100 µM (HCT116 cells)?
Its inhibition at 100 µM is 94.6%.

What does the source list for `Cc1ccc(-c2ccc3[nH]c4c(c3c2)CN(c2ncc(C(=O)NO)cn2)CC4)cc1` [Example 41, N-hydroxy-2-{8-[4-methylphenyl]-1,3,4,5-tetrahydro-2H-pyrido[4,3-b]indol-2-yl}pyrimidine-5-carboxamide]?
% Inhibition of HDAC @ 100 μM (HDAC): 99.6%; inhibition at 100 µM (HCT116 cells): 98.7%

Which “% Inhibition of HDAC @ 100 μM” value (HDAC) does the source give for `O=C(NO)c1cnc(N2CCc3c(n(CCN4CCCC4)c4ccccc34)C2)nc1` [Example 23, N-hydroxy-2-{9-[2-pyrrolidin-1-ylethyl]-1,3,4,9-tetrahydro-2H-b-carbolin-2-yl}pyrimidine-5-carboxamide] here?
Its value is 99.3%.

And the inhibition at 100 µM (HCT116 cells)?
The inhibition at 100 µM was 98.1%.

With `O=C(NO)c1cnc(N2CCc3c([nH]c4ccc(F)cc34)C2)nc1` [Example 63, N-hydroxy-2-(6-fluoro-1,3,4,9-tetrahydro-2H-b-carbolin-2-yl)pyrimidine-5-carboxamide] as the molecule, how does the “% Inhibition of HDAC @ 100 μM” value (HDAC) read?
The value was 99.8%.

And the inhibition at 100 µM (HCT116 cells)?
The inhibition at 100 µM was 98.9%.

What does the source list for `O=C(CCc1cnc(N2CCc3c([nH]c4ccccc34)C2)nc1)NO` [Example 21, N-hydroxy-3-[2-(1,3,4,9-tetrahydro-2H-b-carbolin-2-yl)pyrimidin-5-yl]propanamide]?
% Inhibition of HDAC @ 100 μM (HDAC): 98.5%; inhibition at 100 µM (HCT116 cells): 94%

Which “% Inhibition of HDAC @ 100 μM” value (HDAC) does the source give for `O=C(NO)c1cnc(N2CCc3[nH]c4ccc(-c5ccoc5)cc4c3C2)nc1` [Example 52, N-hydroxy-2-{8-[fur-3-yl]-1,3,4,5-tetrahydro-2H-pyrido[4,3-b]indol-2-yl}pyrimidine-5-carboxamide] here?
The value was 99.7%.

And the inhibition at 100 µM (HCT116 cells)?
Its inhibition at 100 µM is 98.9%.

Which “% Inhibition of HDAC @ 100 μM” value (HDAC) does the source give for `Cc1cc2[nH]c3c(c2cc1C)CN(c1ncc(C(=O)NO)cn1)CC3` [Example 56, N-hydroxy-2-(7,8-dimethyl-1,3,4,5-tetrahydro-2H-pyrido[4,3-b]indol-2-yl)pyrimidine-5-carboxamide] here?
The value was 99.8%.

What about the inhibition at 100 µM (HCT116 cells) of the same molecule?
The inhibition at 100 µM was 99%.

Which results are given for `CN(C)c1ccc(-c2ccc3[nH]c4c(c3c2)CN(c2ncc(C(=O)NO)cn2)CC4)cc1` [Example 48, N-hydroxy-2-{8-[4-dimethylaminophenyl]-1,3,4,5-tetrahydro-2H-pyrido[4,3-b]indol-2-yl}pyrimidine-5-carboxamide]?
% Inhibition of HDAC @ 100 μM (HDAC): 99.7%; inhibition at 100 µM (HCT116 cells): 97.8%

`CN1CCN(Cc2cccc(-c3ccc4[nH]c5c(c4c3)CCN(c3ncc(C(=O)NO)cn3)C5)c2)CC1` [Example 71, N-hydroxy-2-{6-[3-((4-methylpiperazin-1-yl)methyl)phenyl]-1,3,4,9-tetrahydro-2H-b-carbolin-2-yl}pyrimidine-5-carboxamide] was tested. Which “% Inhibition of HDAC @ 100 μM” value (HDAC) did it give?
The value was 99.9%.

And the inhibition at 100 µM (HCT116 cells)?
The inhibition at 100 µM was 98.6%.

Which “% Inhibition of HDAC @ 100 μM” value (HDAC) does the source give for `O=C(NO)c1cnc(N2CCc3c(sc4ccccc34)C2)nc1` [Example 118, 2-(3,4-dihydro[1]benzothieno[2,3-c]pyridin-2(1H)-yl)-N-hydroxypyrimidine-5-carboxamide] here?
Its value is 99.7%.

What about the inhibition at 100 µM (HCT116 cells) of the same molecule?
Its inhibition at 100 µM is 98.9%.

How did the “% Inhibition of HDAC @ 100 μM” value (HDAC) turn out when `O=C(NO)c1cnc(N2CCc3c(n(Cc4ccccc4)c4ccccc34)C2)nc1` [Example 28, N-hydroxy-2-(9-benzyl-1,3,4,9-tetrahydro-2H-b-carbolin-2-yl)pyrimidine-5-carboxamide] was run?
The value was 95.2%.

What about the inhibition at 100 µM (HCT116 cells) of the same molecule?
Its inhibition at 100 µM is 98.7%.

Which results are given for `O=C(NO)c1cnc(N2CCc3[nH]c4ccc(-c5cccc(CN6CCOCC6)c5)cc4c3C2)nc1` [Example 90, N-hydroxy-2-{8-[3-(morpholin-4-ylmethyl)phenyl]-1,3,4,5-tetrahydro-2H-pyrido[4,3-b]indol-2-yl}pyrimidine-5-carboxamide]?
% Inhibition of HDAC @ 100 μM (HDAC): 99.8%; inhibition at 100 µM (HCT116 cells): 93.1%

`O=C(NO)c1cnc(N2CCc3[nH]c4ccccc4c(=O)c3C2)nc1` [Example 122, N-hydroxy-2-(10-oxo-3,4,5,10-tetrahydrobenzo[b]-1,6-naphthyridin-2(1H)-yl)pyrimidine-5-carboxamide] was tested. Which “% Inhibition of HDAC @ 100 μM” value (HDAC) did it give?
Its value is 100%.

What about the inhibition at 100 µM (HCT116 cells) of the same molecule?
Its inhibition at 100 µM is 44.4%.

Which results are given for `COc1ccc2[nH]c3c(c2c1)CCN(c1ncc(C(=O)NO)cn1)C3` [Example 10, N-hydroxy-2-(6-methoxy-1,3,4,9-tetrahydro-2H-b-carbolin-2-yl)pyrimidine-5-carboxamide]?
% Inhibition of HDAC @ 100 μM (HDAC): 99.5%; inhibition at 100 µM (HCT116 cells): 98.4%

Which results are given for `O=C(NO)c1cnc(N2CCc3[nH]c4ccc(OC(F)(F)F)cc4c3C2)nc1` [Example 16, N-hydroxy-2-[8-(trifluoromethoxy)-1,3,4,5-tetrahydro-2H-pyrido[4,3-b]indol-2-yl]pyrimidine-5-carboxamide]?
% Inhibition of HDAC @ 100 μM (HDAC): 98.9%; inhibition at 100 µM (HCT116 cells): 99%

Which results are given for `O=C(NO)c1cnc(N2CCc3[nH]c4ccc(-c5ccc[nH]5)cc4c3C2)nc1` [Example 53, N-hydroxy-2-{8-[1H-pyrrol-2-yl]-1,3,4,5-tetrahydro-2H-pyrido[4,3-b]indol-2-yl}pyrimidine-5-carboxamide]?
% Inhibition of HDAC @ 100 μM (HDAC): 100%; inhibition at 100 µM (HCT116 cells): 96.4%

How did the “% Inhibition of HDAC @ 100 μM” value (HDAC) turn out when `O=C(NO)c1cnc(N2CCc3[nH]c4ccc(Br)cc4c3C2)nc1` [Example 15, 2-(8-bromo-1,3,4,5-tetrahydro-2H-pyrido[4,3-b]indol-2-yl)-N-hydroxypyrimidine-5-carboxamide] was run?
The value was 99.8%.

What about the inhibition at 100 µM (HCT116 cells) of the same molecule?
The inhibition at 100 µM was 99%.

`Cc1ccc2c3c([nH]c2c1)CN(c1ncc(C(=O)NO)cn1)CC3` [Example 65, N-hydroxy-2-(7-methyl-1,3,4,9-tetrahydro-2H-b-carbolin-2-yl)pyrimidine-5-carboxamide] was tested. Which “% Inhibition of HDAC @ 100 μM” value (HDAC) did it give?
Its value is 99.8%.

And the inhibition at 100 µM (HCT116 cells)?
The inhibition at 100 µM was 98.4%.

`Cc1ccc2[nH]c3c(c2c1)CCN(c1ncc(C(=O)NO)cn1)C3` [Example 68, N-hydroxy-2-(6-methyl-1,3,4,9-tetrahydro-2H-b-carbolin-2-yl)pyrimidine-5-carboxamide] was tested. Which “% Inhibition of HDAC @ 100 μM” value (HDAC) did it give?
The value was 99.9%.

What about the inhibition at 100 µM (HCT116 cells) of the same molecule?
Its inhibition at 100 µM is 98.9%.

For `O=C(NO)c1cnc(N2CCc3[nH]c4ccc(-c5cccc(CN6CCCCC6)c5)cc4c3C2)nc1` [Example 91, N-hydroxy-2-{8-[3-(piperidin-1-ylmethyl)phenyl]-1,3,4,5-tetrahydro-2H-pyrido[4,3-b]indol-2-yl}pyrimidine-5-carboxamide], which “% Inhibition of HDAC @ 100 μM” value (HDAC) is on record?
Its value is 100%.

And the inhibition at 100 µM (HCT116 cells)?
Its inhibition at 100 µM is 98.6%.

`Cc1cc2c3c([nH]c2cc1Cl)CCN(c1ncc(C(=O)NO)cn1)C3` [Example 34, N-hydroxy-2-(7-chloro-8-methyl-1,3,4,5-tetrahydro-2H-pyrido[4,3-b]indol-2-yl)pyrimidine-5-carboxamide] was tested. Which “% Inhibition of HDAC @ 100 μM” value (HDAC) did it give?
The value was 99.1%.

What about the inhibition at 100 µM (HCT116 cells) of the same molecule?
The inhibition at 100 µM was 99.3%.

With `CC(=O)Nc1ccc(-c2ccc3[nH]c4c(c3c2)CN(c2ncc(C(=O)NO)cn2)CC4)cc1` [Example 50, N-hydroxy-2-{8-[4-(N-acetamido)phenyl]-1,3,4,5-tetrahydro-2H-pyrido[4,3-b]indol-2-yl}pyrimidine-5-carboxamide] as the molecule, how does the “% Inhibition of HDAC @ 100 μM” value (HDAC) read?
Its value is 99.7%.

And the inhibition at 100 µM (HCT116 cells)?
The inhibition at 100 µM was 89.1%.

For `CN1CCCC(n2c3c(c4ccccc42)CCN(c2ncc(C(=O)NO)cn2)C3)C1` (centres unmarked) [Example 59, N-hydroxy-2-[9-(1-methylpiperidin-3-yl)-1,3,4,9-tetrahydro-2H-b-carbolin-2-yl]pyrimidine-5-carboxamide], which “% Inhibition of HDAC @ 100 μM” value (HDAC) is on record?
Its value is 97.3%.

And the inhibition at 100 µM (HCT116 cells)?
The inhibition at 100 µM was 97.5%.
